Laboratory results: US20120077854A1, “COMPOSITIONS AND METHODS FOR MODULATING RETINOL BINDING TO RETINOL BINDING PROTEIN 4 (RBP4)” (priority 2009, published 2012)
Blank lines part the entries; values can stand above or below the compound they belong to.

Target: RBP4 (Homo sapiens, UniProt P02753)
Assay: HTRF competition assay: displacement of Cy5-labeled retinol from RBP4
Format: binding
Details: 10 nM biotin-labeled RBP4, streptavidin-Europium cryptate 1 nM, room temperature 30 min
Experimental: To determine the binding affinity of test compounds for RBP4, a homogeneous time resolved fluorescence (HTRF) assay was developed. The assay was a competition experiment measuring the interaction of RBP4 with the known RBP4 ligand retinol. Cy5-labeled retinol was incubated with 10 nM biotin-labeled RBP4 protein and streptavidin-Europium cryptate (1 nM). Test or control compounds were added to the reaction mixture and incubated at room temperature for 30 min. The HTRF signal was determined by monitoring the emission at 665 nm and […]. The ratio between the 665 nM signal and the […] signal was used to determine the binding of Cy5-retinol to RBP4. The ability of test or control compounds to displace Cy5-retinol from RBP4 was used to determine their potency for RBP4. […]

SMILES: O=C(O)Cc1cc(-c2ccc(Cl)c(C(F)(F)F)c2)no1 [Example 25, 2-(3-(4-Chloro-3-(trifluoromethyl)phenyl)isoxazol-5-yl)acetic acid]
- IC50: 285 nM

SMILES: O=C(O)Cc1csc(-c2cc(Cl)cc(C(F)(F)F)c2)n1 [Example 8, 2-(2-(3-Chloro-5-(trifluoromethyl)phenyl)thiazol-4-yl)acetic acid]
- IC50: 88 nM

SMILES: Cc1sc(CC(=O)O)nc1-c1cc(C(F)(F)F)cc(C(F)(F)F)c1 [Example 9, 2-(4-(3,5-Bis(trifluoromethyl)phenyl)-5-methylthiazol-2-yl)acetic acid]
- IC50: 232 nM

SMILES: COC(=O)Cc1nc(-c2cc(C(F)(F)F)cc(C(F)(F)F)c2)co1 [Example 5, Methyl 2-(4-(3,5-bis(trifluoromethyl)phenyl)oxazol-2-yl)acetate]
- IC50: 924 nM

SMILES: Cc1oc(CC(=O)O)nc1-c1cc(C(F)(F)F)cc(C(F)(F)F)c1 [Example 11, 2-(4-(3,5-Bis(trifluoromethyl)phenyl)-5-methyloxazol-2-yl)acetic acid]
- IC50: 1590 nM

SMILES: O=C(O)Cc1csc(-c2cc(Br)cc(C(F)(F)F)c2)n1 [Example 28, 2-(2-(3-Bromo-5-(trifluoromethyl)phenyl)thiazol-4-yl)acetic acid]
- IC50: 50 nM

SMILES: FC(F)(F)c1cc(-c2nc(Cc3nn[nH]n3)cs2)cc(C(F)(F)F)c1 [Example 34, 5-[2-(3,5-Bis-trifluoromethyl-phenyl)-thiazol-4-ylmethyl]-2H-tetrazole]
- IC50: 98 nM

SMILES: O=C(O)Cc1nc(-c2cc(C(F)(F)F)cc(C(F)(F)F)c2)co1 [Example 7, 2-(4-(3,5-Bis(trifluoromethyl)phenyl)oxazol-2-yl)acetic acid]
- IC50: 31 nM

SMILES: O=C(O)Cc1nc(-c2cc(F)cc(C(F)(F)F)c2)co1 [Example 12, 2-(4-(3-Fluoro-5-(trifluoromethyl)phenyl)oxazol-2-yl)acetic acid]
- IC50: 73 nM

SMILES: COC(=O)Cc1coc(-c2cc(C(F)(F)F)cc(C(F)(F)F)c2)n1 [Example 4, Methyl 2-(2-(3,5-bis(trifluoromethyl)phenyl)oxazol-4-yl)acetate]
- IC50: 2850 nM

SMILES: O=C(O)C(O)c1csc(-c2cc(C(F)(F)F)cc(C(F)(F)F)c2)n1 (stereo not drawn) [Example 16, 2-(2-(3,5-Bis(trifluoromethyl)phenyl)thiazol-4-yl)-2-hydroxyacetic acid]
- IC50: 141 nM

SMILES: O=C(O)Cc1csc(-c2cc(F)c(F)c(C(F)(F)F)c2)n1 [Example 30, 2-(2-(3,4-Difluoro-5-(trifluoromethyl)phenyl)thiazol-4-yl)acetic acid]
- IC50: 86 nM

SMILES: O=C(O)Cc1nc(-c2cc(F)cc(C(F)(F)F)c2)cs1 [Example 13, 2-(4-(3-Fluoro-5-(trifluoromethyl)phenyl)thiazol-2-yl)acetic acid]
- IC50: 91 nM

SMILES: FC(F)(F)c1cc(-c2nc(Cc3nn[nH]n3)cs2)ccc1Cl [Example 35, 5-[2-(4-Chloro-3-trifluoromethyl-phenyl)-thiazol-4-ylmethyl]-2H-tetrazole]
- IC50: 196 nM

SMILES: O=C(O)Cc1csc(-c2cc(F)cc(C(F)(F)F)c2)n1 [Example 20, 2-(2-(3-Fluoro-5-(trifluoromethyl)phenyl)thiazol-4-yl)acetic acid]
- IC50: 168 nM

SMILES: COc1ccc(-c2nc(CC(=O)O)cs2)cc1C(F)(F)F [Example 26, 2-(2-(4-Methoxy-3-(trifluoromethyl)phenyl)thiazol-4-yl)acetic acid]
- IC50: 193 nM

SMILES: O=C(O)Cc1csc(-c2cc(C(F)(F)F)cc(C(F)(F)F)c2)n1 [Example 2, 2-(2-(3,5-Bis(trifluoromethyl)phenyl)thiazol-4-yl)acetic acid]
- IC50: 85 nM

SMILES: O=C(O)Cc1csc(-c2cc(C(F)F)cc(C(F)(F)F)c2)n1 [Example 32, 2-(2-(3-(Difluoromethyl)-5-(trifluoromethyl)phenyl)thiazol-4-yl)acetic acid]
- IC50: 134 nM

SMILES: COC(=O)Cc1nc(-c2cc(C(F)(F)F)cc(C(F)(F)F)c2)no1 [Example 3, Methyl 2-(3-(3,5-bis(trifluoromethyl)phenyl)-1,2,4-oxadiazol-5-yl)acetate]
- IC50: 3440 nM

SMILES: O=C(O)c1nc(-c2cc(C(F)(F)F)cc(C(F)(F)F)c2)cs1 [Example 33, 4-(3,5-Bis-trifluoromethyl-phenyl)-thiazole-2-carboxylic acid]
- IC50: 1060 nM

SMILES: COC(=O)Cc1csc(-c2cc(C(F)(F)F)cc(C(F)(F)F)c2)n1 [Example 1, Methyl 2-(2-(3,5-bis(trifluoromethyl)phenyl)thiazol-4-yl)acetate]
- IC50: 2430 nM

SMILES: COc1cc(-c2nc(CC(=O)O)cs2)cc(C(F)(F)F)c1 [Example 14, 2-(2-(3-Methoxy-5-(trifluoromethyl)phenyl)thiazol-4-yl)acetic acid]
- IC50: 88 nM

Now from value to compound:

- IC50: 658 nM
SMILES: O=C(O)Cc1coc(-c2cc(F)cc(C(F)(F)F)c2)n1 [Example 19, 2-(2-(3-Fluoro-5-(trifluoromethyl)phenyl)oxazol-4-yl)acetic acid]

- IC50: 8820 nM
SMILES: O=C(O)Cc1coc(-c2cc(C(F)(F)F)ccc2Cl)n1 [Example 36, 2-(2-(2-Chloro-5-(trifluoromethyl)phenyl)oxazol-4-yl)acetic acid]

- IC50: 86 nM
SMILES: Cc1ccc(-c2nc(CC(=O)O)cs2)cc1C(F)(F)F [Example 17, 2-(2-(4-Methyl-3-(trifluoromethyl)phenyl)thiazol-4-yl)acetic acid]

- IC50: 1050 nM
SMILES: O=C(O)Cc1csc(-c2cc(C(F)(F)F)ccc2Cl)n1 [Example 21, 2-(2-(2-Chloro-5-(trifluoromethyl)phenyl)thiazol-4-yl)acetic acid]

- IC50: 721 nM
SMILES: O=C(O)Cc1coc(-c2ccc(F)c(C(F)(F)F)c2)n1 [Example 24, 2-(2-(4-Fluoro-3-(trifluoromethyl)phenyl)oxazol-4-yl)acetic acid]

- IC50: 263 nM
SMILES: O=C(O)Cc1coc(-c2cc(F)c(F)c(C(F)(F)F)c2)n1 [Example 29, 2-(2-(3,4-Difluoro-5-(trifluoromethyl)phenyl)oxazol-4-yl)acetic acid]

- IC50: 2380 nM
SMILES: O=C(O)Cc1csc(-c2cccc(C(F)(F)F)c2Cl)n1 [Example 27, 2-(2-(2-Chloro-3-(trifluoromethyl)phenyl)thiazol-4-yl)acetic acid]

- IC50: 175 nM
SMILES: COc1ccc(-c2nc(CC(=O)O)co2)cc1C(F)(F)F [Example 23, 2-(2-(4-Methoxy-3-(trifluoromethyl)phenyl)oxazol-4-yl)acetic acid]

- IC50: 1660 nM
SMILES: O=C(O)Cc1coc(-c2cccc(C(F)(F)F)c2Cl)n1 [Example 22, 2-(2-(2-Chloro-3-(trifluoromethyl)phenyl)oxazol-4-yl)acetic acid]

- IC50: 63 nM
SMILES: O=C(O)Cc1csc(-c2ccc(Cl)c(C(F)(F)F)c2)n1 [Example 10, 2-(2-(4-Chloro-3-(trifluoromethyl)phenyl)thiazol-4-yl)acetic acid]

- IC50: > 10000 nM
SMILES: O=C(O)Cc1coc(-c2cc(Br)cc(C(F)(F)F)c2)n1 [Example 37, 2-(2-(3-Bromo-5-(trifluoromethyl)phenyl)oxazol-4-yl)acetic acid]

- IC50: 248 nM
SMILES: COc1cc(-c2nc(CC(=O)O)co2)cc(C(F)(F)F)c1 [Example 15, 2-(2-(3-Methoxy-5-(trifluoromethyl)phenyl)oxazol-4-yl)acetic acid]

- IC50: 93 nM
SMILES: O=C(O)Cc1coc(-c2cc(C(F)(F)F)cc(C(F)(F)F)c2)n1 [Example 6, 2-(2-(3,5-Bis(trifluoromethyl)phenyl)oxazol-4-yl) acetic acid]

- IC50: 440 nM
SMILES: O=C(O)Cc1csc(-c2ccc(F)c(C(F)(F)F)c2)n1 [Example 18, 2-(2-(4-Fluoro-3-(trifluoromethyl)phenyl)thiazol-4-yl)acetic acid]
